# Results reported in patent publication US20250188080A1, “IMIDAZOLONYLQUINOLINE COMPOUNDS AND THERAPEUTIC USES THEREOF” (Merck Patent GmbH, priority 2019, published 2025).
# Entries after “also recorded” stand apart in the source; their conditions may differ.
# Experiments:
# [1] = Microsomal stability (intrinsic clearance), mouse; type: in vitro ADME; design: microsomal CLint: dose or concentration left out as unconfirmed; conditions: for CLint (mouse): mouse microsomes
# Text: A microsomal stability assay is used to measure in vitro clearance (Clint). The assay involves measuring the rate of disappearance of a compound due to its intrinsic attitude to be metabolized (“intrinsic” meaning that the disappearance is not affected by other properties like permeability, binding etc. that play a role when quantifying in vivo clearance). The microsomal stability (intrinsic clearance, Clint) and, thus, metabolic stability is generally given as μl/min/mg protein. It can be visualized as the volume of solution that 1 mg of microsomes is able to clear of the compound in one minute.
# A Tecan Genesis workstation (RSP 150/8) was used for to perform the microsomal incubations. Analysis was carried out using a Waters ACQUITY UPLC system coupled to an ABSciex API3000 mass spectrometer. Data analysis was performed using Assay Explorer (Symyx).
# • Potassium phosphate buffer: 0.05 M potassium phosphate buffer pH 7.4 containing 1 mM MgCl2 • NADPH (nicotinamide adenine dinucleotide phosphate): 22.5 mg NADPH-Na4 in 1.8 ml potassium phosphate buffer • Acetonitrile: 50 Vol % acetonitrile (1 volume acetonitrile, 1 volume water) • DMSO: 20 Vol % DMSO in water • Stock solution of 20 mg/ml human or mouse liver microsomes (protein)/ml in phosphate buffer • Stock solution of 10 mM compound in 100% DMSO
# Dilution of test compounds was done in 2 steps starting from a 10 mM stock solution of the respective compound in 100% DMSO. First 4 μl stock solution was added to 196 μl of 20 Vol % DMSO. In a second step, 10 μl of the first dilution were added to 1590 μl potassium phosphate buffer to achieve a final concentration of 1.25 μM in the final compound dilution. Thus, the amount of organic solvent in the assay was kept to a minimum (<1%).
# The human or mouse liver microsome (protein) solution to be used in the assay was prepared by mixing 750 μl stock solution (20 mg/ml) and 2250 μl potassium phosphate buffer to a final concentration of 5 mg/ml.
# Incubation was carried out on a 96 deep well incubation plate. […]
# [2] = test system: xenografts of the human squamous cell head and neck model FaDu; assay: FaDu SCCHN tumor model, combination with irradiation; type: in vivo, NMRI nu/nu mice; conditions: oral 10 or 25 mg/kg 30 min before each IR fraction; 6×5 days, 2 Gy
# Experimental: One of the control groups was treated with vehicle only. The other control group was treated with IR only at 30 fractions IR of 2 Gy in a 5 days on/2 days off schedule and over a period of 6 weeks.
# [3] = test system: CYP1A2, CYP2C8, CYP2C9, CYP2C19, CYP2D6, CYP3A4; assay: Cytochrome P-450 enzymes (CYP) inhibition, P450-Glo; type: in vitro ADME; conditions: human
# Experimental: In the human organism, drug substances are converted to water-soluble compounds by enzyme systems to facilitate their excretion. These enzyme systems include microsomal cytochrome P-450 enzymes, CYPs for short. The assay is designed to identify whether a compound may be a strong inhibitor for defined CYP isoforms. This involves the use of recombinant CYP isoforms and their reductase obtained by overexpression in insect cells infected with baculovirus. The CYP reaction is performed through […] of the CYP isoform being tested along with a luminometric CYP substrate under NADPH-regenerating conditions. The luminometric P450-Glo™ substrates are derivatives of beetle luciferin ((4S)-4,5-dihydro-2-(6-hydroxybenzothiazolyl)-4-thiazolecarboxylic acid or D-luciferin), a substrate of firefly luciferase from beetles. […] This allows enzyme activity to be quantified rapidly through the luminosity. […] The following commercially available screening systems/assays are used: P450-Glo™ CYP1A2 Screening System (Promega Corporation; V9770); P450-Glo™ CYP2C8 Assay (Promega Corporation; V8782); P450-Glo™ CYP2C9 Screening System (Promega Corporation; V9790); P450-Glo™ CYP2C19 Screening System (Promega Corporation; V9880); P450-Glo™ CYP2D6 Screening System (Promega Corporation; […]); P450-Glo™ CYP3A4 Screening System (Luciferin-PPXE) (Promega Corporation; V9910).
# [4] = test system: HBCx-10 patient-derived triple-negative breast cancer xenograft; assay: HBCx-10 patient-derived xenograft, combination with olaparib; type: in vivo, immunodeficient female mice; conditions: 100 mg/kg p.o. (3 d on/4 d off)×7 with olaparib 50 mg/kg p.o. qd×49
# Experimental: Seventy (70) mice with a subcutaneously growing HBCx-10 tumor (P20.1.4/0) between 62.5 and 196.0 mm^3 were allocated to treatment when their mean and median tumor volume reached 131.16 and 126.00 mm^3 respectively.
# Tumors were measured biweekly during the treatment period and once a week during the follow-up period.
"microsomal CLint ([1]; mouse, liver microsomes, pH 7.4, mouse microsomes) [µL/min/mg]",CLint (mouse) [1] [μl/min/mg protein],IC50 [3] [µM],SMILES,Anti-tumor efficacy in combination with irradiation [2],Anti-tumor efficacy in combination with olaparib [4]
61,,,"COc1cc2ncc3c(c2cc1-c1cn(C)nc1C)n(-c1c(F)cncc1OC)c(=O)n3C [Compound Y, 8-(1,3-dimethyl-1H-pyrazol-4-yl)-1-(3-fluoro-5-methoxypyridin-4-yl)-7-methoxy-3-methyl-1,3-dihydroimidazo[4,5-c]quinolin-2-one, reference compound]",,
,103,,"COc1cc2ncc3c(c2cc1-c1cn(C)nc1C)n(-c1c(F)cncc1OC)c(=O)n3C (single isomer, unassigned) [Compound 2, 8-(1,3-Dimethyl-1H-pyrazol-4-yl)-1-(Ra)-(3-fluoro-5-methoxy-pyridin-4-yl)-7-methoxy-3-methyl-1,3-dihydro-imidazo[4,5-c]quinolin-2-one]",,
,22,≥ 20,"COc1cc2ncc3c(c2cc1-c1cn(C)nc1C)n(-c1c(F)cncc1OC)c(=O)n3C (single isomer, unassigned) [Compound 1, 8-(1,3-Dimethyl-1H-pyrazol-4-yl)-1-(Sa)-(3-fluoro-5-methoxy-pyridin-4-yl)-7-methoxy-3-methyl-1,3-dihydro-imidazo[4,5-c]quinolin-2-one]",significant dose-dependent anti-tumor responses; also recorded: strongly enhanced the efficacy of IR (irradiation) in a dose-dependent manner; also recorded: strong tumor growth inhibition,efficacy of Compound 1 in combination with olaparib was demonstrated
